Patent publication US7253286B2, “Nitrogen-containing aromatic derivatives” (Eisai Co., Ltd, priority 2000, dated 2007)

The molecules below were run on Human Umbilical Vein Endothelial Cells (HUVECs) (assay: Inhibition against sandwich tube formation by vascular endothelial cells in response to stimulation by VEGF). Conditions: HUVEC in collagen gel sandwich, stimulation by VEGF (25 ng/ml VEGF and 10 ng/ml EGF), 4th day, total tube length, read-out: IC50 (concentration required for 50% inhibition of tube formation).
Format: cell-based
Experimental: Inhibition Against Sandwich Tube Formation by Vascular Endothelial Cells in Response to Stimulation by Angiogenic Factor
Human Umbilical Vein Endothelial Cells (HUVECS) were isolated by the same method as in Pharmacological Test Example 1, and were cultured in a 5% CO2 incubator (37° C.) using EGM-2 medium (purchased from Clonetics Corp.) until the cells reached confluency.
An ice-cooled mixture of collagen: 5× RPMI 1640: reconstitution buffer (all purchased from Nitta Gelatin, Inc.) at 7:2:1 was dispensed at 0.4 ml into each well of a 24-well plate, and then stationed for 40 minutes in a 5% CO2 incubator (37° C.) for gelling. The HUVECs were recovered using trypsin-EDTA and then suspended in human endothelial serum free medium (SFM, purchased from GIBCO BRL) containing added angiogenic factors [20 ng/ml FGF2 (purchased from GIBCO BRL) and 10 ng/ml EGF (purchased from GIBCO BRL), or 25 ng/ml VEGF (purchased from Wako Pure Chemical Industries Co., Ltd.) and 10 ng/ml EGF, or 30 ng/ml HGF (purchased from R&D Co.) and 10 ng/ml EGF], and the cell suspension was added at 0.4 ml to each well (with the cell counts differing slightly according to the HUVEC lot), and cultured overnight in a 5% CO2 incubator (37° C.). On the following day, the medium on the upper layer was aspirated off, and then 0.4 ml of an ice-cooled mixture of collagen: 5× RPMI 1640: reconstitution buffer (all purchased from Nitta Gelatin, Inc.) at 7:2:1 was superposed into each well prior to stationing for 4 hours in a 5% CO2 incubator (37° C.) for gelling. After adding 1.5 ml of an SFM solution containing each of the aforementioned angiogenic factors and a diluted test substance onto the upper layer, culturing was performed in a 5% CO2 incubator (37° C.). Upon aspirating off the culture supernatant in each well on the 4th day after addition of the test substance, 0.4 ml of a 3.3 mg/ml MTT solution dissolved in PBS (purchased from Sigma Corp.) was added to each well and culturing was performed for approximately 2 hours in a 5% CO2 incubator (37° C.). The tubes formed in the collagen gel of each well were stained by the MTT, the tube images were loaded into a computer (Macintosh), and the total length of the tubes was determined by image analysis software “MacScope” (purchased from Mitani Corp.). The ratio of the total length of the tubes formed in the well containing the test substance with respect to the total length of the tubes formed in the well containing no test substance was expressed as a percentage, and the concentration of each test substance required for 50% inhibition of tube formation (IC50) was determined from the ratio value.

Structure (SMILES) | IC50
COCCOc1cc2nccc(Oc3ccc(NC(=O)Nc4nccs4)cc3)c2cc1C#N [Example 12, N-(4-(6-cyano-7-(2-methoxyethoxy)-4-quinolyl)oxyphenyl)-N′-(1,3-thiazol-2-yl)urea] | 44 nM
COCCOc1cc2nccc(Oc3ccc(NC(=O)Nc4cccc(C#N)c4)cc3)c2cc1C#N [Example 19, N-(4-(6-Cyano-7-(2-methoxyethoxy)-4-quinolyl)oxyphenyl)-N′-(3-cyanophenyl)urea] | 28 nM
COCCOc1cc2nccc(Oc3ccc(NC(=O)NC4CC4)cc3)c2cc1C#N [Example 23, N-(4-(6-cyano-7-(2-methoxyethoxy)-4-quinolyl)oxyphenyl)-N′-cyclopropylurea] | 100 nM
CS(=O)(=O)CCOc1cc2nccc(Oc3ccc(NC(=O)Nc4ccc(F)cc4)cc3)c2cc1C#N [Example 59, N-(4-(6-Cyano-7-(2-(methylsulfonyl)ethoxy)-4-quinolyl)oxyphenyl)-N′-(4-fluorophenyl)urea] | 170 nM
COC(=O)CCCOc1cc2nccc(Oc3ccc(NC(=O)Nc4ccc(OC)cc4)cc3)c2cc1C#N [Example 70, N-(4-(6-Cyano-7-(3-methoxycarbonylpropoxy)-4-quinolyl)oxyphenyl)-N′-(4-methoxyphenyl)urea] | 58 nM
CS(=O)(=O)CCCOc1cc2nccc(Oc3ccc(NC(=O)Nc4ccc(F)cc4)cc3)c2cc1C#N [Example 108, N-(4-(6-Cyano-7-(3-(methylsulfonyl)propoxy)-4-quinolyloxy)phenyl)-N′-(4-fluorophenyl)urea] | 4.9 nM
CN1CCCC(COc2cc3nccc(Oc4ccc(NC(=O)Nc5ccc(F)cc5)c(F)c4)c3cc2C#N)C1 (centres unmarked) [Example 127, N-(4-(6-Cyano-7-((1-methylpiperidin-3-yl)methoxy)-4-quinolyl)oxy-2-fluorophenyl)-N′-(4-fluorophenyl)urea] | 7.5 nM
COc1cc2nccc(Oc3ccc(NC(=O)Nc4ccccc4)cn3)c2cc1OC [Example 129, N-6-((6,7-Dimethoxy-4-quinolyl)oxy)-3-pyridyl-N′-phenylurea] | 40 nM
N#Cc1cc2c(Oc3ccc(NC(=O)Nc4ccc(F)cc4)c(F)c3)ccnc2cc1OCCCC(=O)NC1CC1 [Example 137, N-(4-(6-Cyano-7-(3-((cyclopropylamino)carbonyl)propoxy)-4-quinolyl)oxy-2-fluorophenyl)-N′-(4-fluorophenyl)urea] | 10 nM
O=C(Nc1ccc(Oc2ncnc3[nH]c(-c4ccc(OCCCN5CCCC5)cc4)cc23)cc1Cl)NC1CC1 [Example 155] | 1.4 nM
CCN(CC)C[C@@H](O)COc1ccc(-c2cc3c(Oc4ccc(NC(=O)NC5CC5)c(Cl)c4)ncnc3[nH]2)cc1 [Example 157] | 0.9 nM
C#Cc1c(Oc2ccc(NC(=O)Nc3ccc(F)cc3)cc2)ccnc1N(C(=O)C1CC1)C(=O)C1CC1 [Example 186, N1-Cyclopropylcarbonyl-N1-[3-(1-ethynyl)-4-(4-{[(4-fluoroanilino)carbonyl]amino}phenoxy)-2-pyridyl]-1-cyclopropanecarboxamide] | 23 nM
O=C(Nc1cc(Oc2ccc3c(ccn3C(=O)Nc3ccccc3)c2)ccn1)C1CCN(CC2CC2)CC1 [Example 198, N1-Phenyl-5-{[2-({[(1-cyclopropylmethyl)-4-piperidyl]carbonyl}amino)-4-pyridyl]oxy}-1H-1-indolecarboxamide] | 1.5 nM
CN1CCC(C(=O)Nc2cc(Oc3ccc(NC(=O)Nc4ccc(F)cc4)c(Cl)c3)ccn2)CC1 [Example 202, N4-[4-(3-Chloro-4-{[(4-fluoroanilino)carbonyl]amino}phenoxy)-2-pyridyl]-1-methyl-4-piperidinecarboxamide] | 15 nM
CN1CCC(CC(=O)Nc2cc(Oc3ccc4c(ccn4C(=O)Nc4ccccc4)c3)ccn2)CC1 [Example 204, N1-Phenyl-5-[(2-{[2-(1-methyl-4-piperidyl)acetyl]amino}-4-pyridyl)oxy]-1H-1-indolecarboxamide] | 0.9 nM
O=C(C1CC1)N(C(=O)C1CC1)c1cc(Oc2ccc3c(ccn3C(=O)NC3CC3)c2)ccn1 [Example 211, N1-Cyclopropyl-5-({2-[di(cyclopropylcarbonyl)amino]-4-pyridyl}oxy)-1H-1-indolecarboxamide] | 0.3 nM

Structure (SMILES) | IC50
O=C(Nc1cc(Oc2ccc3c(ccn3C(=O)NCCF)c2)ccn1)C1CC1 [Example 215, N1-(2-Fluoroethyl)-5-({2-[(cyclopropylcarbonyl)amino]-4-pyridyl}oxy)-1H-1-indolecarboxyamide] | 22 nM
COc1cc2nccc(Oc3ccc(NC(=O)Nc4nccs4)nc3)c2cc1OC [Example 224, N-(5-(6,7-Dimethoxyquinolin-4-yloxy)pyridin-2-yl)-N′-(thiazol-2-yl)urea] | 26 nM
COCCNC(=O)c1cc2c(Oc3ccc(NC(=O)NC4CC4)c(Cl)c3)ccnc2cc1OCCOC [Example 249, N6-(2-Methoxyethyl)-4-(3-chloro-4-{[(cyclopropylamino)carbonyl]amino}phenoxy)-7-(2-methoxyethoxy)-6-quinolinecarboxamide] | 1.6 nM
COCCOc1cc2nccc(Sc3ccc(NC(=O)Nc4ccccc4F)s3)c2cc1C#N [Example 256, 1-{5-[6-Cyano-7-(2-methoxyethoxy)quinolin-4-ylsulfanyl]thiophen-2-yl}-3-(2-fluorophenyl)urea] | 36 nM
N#Cc1cc2c(Oc3ccc4c(ccn4C(=O)Nc4nccs4)c3)ccnc2cc1OCCCN1CCCC1 [Example 289, 5-[6-Cyano-7-(3-(pyrrolidin-1-yl)propoxy)quinolin-4-yloxy]indole-1-carboxylic acid (thiazol-2-yl)amide] | 4.6 nM
CCN(CC)CCCOc1cc2nccc(Oc3ccc4[nH]ccc4c3)c2cc1C#N [Example 296, 7-(3-Diethylaminopropoxy)-4-(1H-indol-5-yloxy)quinoline-6-carbonitrile] | 34 nM
CCNC(=O)n1ccc2cc(Oc3ccnc4cc(OCCCN5CCCC5)c(C#N)cc34)ccc21 [Example 299, 5-[6-Cyano-7-(3-(pyrrolidin-1-yl)propoxy)quinolin-4-yloxy]indole-1-carboxylic acid ethylamide] | 1 nM
CCN(CC)CCCOc1cc2nccc(Oc3ccc4c(ccn4C(=O)Nc4nccs4)c3)c2cc1C#N [Example 300, 5-[6-Cyano-7-(3 diethylaminopropoxy)quinolin-4-yloxy]indole-1-carboxylic acid (thiazol-2-yl)amide] | 7.5 nM
CCNC(=O)n1ccc2cc(Oc3ccnc4cc(OCC5CCN(C)CC5)c(C#N)cc34)ccc21 [Example 304, 6-Cyano-4-(1-ethylcarbamoylindol-5-yloxy)-7-[(1-methylpiperidin-4-yl)methyloxy]quinoline] | 0.3 nM
CN1CCC(COc2cc3nccc(Oc4ccc5c(ccn5C(=O)Nc5nccs5)c4)c3cc2C#N)CC1 [Example 308] | 5.2 nM
COc1cc2nccc(Oc3ccc4c(ccn4C(=O)NC(C)C)c3)c2cc1C(N)=O [Example 320, 6-Carbamoyl-7-methoxy-4-[1-(1-methyl)ethylcarbamoyl-1H-indol-5-yloxy]quinoline] | 2.5 nM
COc1cc2nccc(Oc3ccc4c(ccn4C(=O)NCCCCl)c3)c2cc1C(N)=O [Example 325, 6-Carbamoyl-4-[1-(3-chloropropylcarbamoyl)1H-indol-5-yloxy]-7-methoxyquinoline] | 1 nM
CCOCCCNC(=O)n1ccc2cc(Oc3ccnc4cc(OC)c(C(N)=O)cc34)ccc21 [Example 326, 6-Carbamoyl-4-[1-(3-ethoxypropylcarbamoyl)1H-indol-5-yloxy]-7-methoxyquinoline] | 1 nM
CCN(CC)CCCNC(=O)n1ccc2cc(Oc3ccnc4cc(OC)c(C(N)=O)cc34)ccc21 [Example 327, 6-Carbamoyl-4-[1-(3-diethylaminopropylcarbamoyl)1H-indol-5-yloxy]-7-methoxyquinoline] | 56 nM
CCN(CC)CCCOc1cc2nccc(Oc3ccc(NC(=O)NC4CC4)c(F)c3)c2cc1C(N)=O [Example 372, 4-(4-(Cyclopropylaminocarbonyl)amino-3-fluorophenoxy)-7-(3-(N,N-diethylamino)propoxy)-6-quinolinecarboxamide] | 44 nM
NC(=O)c1cc2c(Oc3ccc(NC(=O)NC4CC4)c(Cl)c3)ccnc2cc1OCCO [Example 386, 4-(3-Chloro-4-(cyclopropylaminocarbonyl)aminophenoxy)-7-(2-hydroxyethoxy)-6-quinolinecarboxamide] | 10 nM
